Where two headings read alike, the source gives them in different places.
What was measured:
[1] = system: S. typhimurium (TA98 and TA1537); conditions: cited from earlier work
[2] = system: S. typhimurium (TA98 and TA1537); experiment: Ames assay (mutagenicity); assay type: cell-based; conditions: for increase in the number of colonies: with and without S9 mix
Hepatocyte stability = assay type: in vitro ADME; conditions: human, hepatocytes; read-out: Hepatocytes stability (t½)
[3] = system: primary human macrophages; experiment: Polarization of primary human macrophages (qPCR, RNAseq); assay type: cell-based
Procedure: (§2) For qPCR, RNA was isolated by Trizol purification followed by reverse transcription using iScript™ cDNA Synthesis Kit and qPCR using iQ™ SYBR® Green Supermix (Biorad). qPCR were run on real time PCR, CFX Opus 96 (Biorad).
RNAseq libraries were prepared following the manufacturer's instructions. The feature-barcode matrices generated by the 10× Genomics CellRanger pipeline were analyzed with an SCTransform workflow (Seurat v4.3.0.1) in RStudio. Cells with greater than 10% mitochondrial counts, fewer than 100 genes detected, or with a number of counts greater than the 93rd percentile of counts were removed. Cell type recognition was performed using the reference-based scRNA-seq annotation package, SingleR. The Immunological Genome Project (ImmGen) was used as the reference dataset. The Seurat object was filtered to include the major immune cell populations present.
As a readout of polarization, changes were analyzed in the expression levels of genes associated with the M1 and M2 phenotype in human macrophages.

[4] = system: THP1 cells differentiated to macrophages; experiment: THP1 macrophages, M2 polarization signalling, Western blot; assay type: cell-based, human
Procedure: (§1) Immunoblot-blot, FACs, and gPCR: For western-blot analysis cell monolayers were washed in PBS and lyzed with complete RIPA buffer containing protease, phosphatases and the HDAC inhibitor Panabinostat (10 nM). Cells were sonicated for 12 cycles at high intensity and the cell lysates were centrifuged at 12,000 rpm for 10 minutes at 4° C. to remove the cell debris. Protein quantitation on the supernatants was performed using BCA assay. Protein samples were prepared at 1 ug/uL concentration with 6× Lamelli buffer and incubated for 5 minutes at 90° C. Precast gels containing 20 μg of protein/sample were run and the gels were transferred to a PVDF membrane and stained with specific antibodies. The antibodies used for western-blot are anti-α-tubulin (mouse DM1A, Cell Signaling Tech), anti-acetyl-α-tubulin (rabbit K40, Cell Signaling Tech), anti-iNOS (rabbit polyclonal, Invitrogen), anti-Arginasel (rabbit D4E3M, Cell Signaling Tech). Anti-c-Myc (rabbit D84C12, cell Signaling Tech), anti-acetylated-c-Myc (Rabbit polyclonal Acetyl-Lys148-c-Myc, Sigma-Aldrich), anti-Stat6 (Rabbit D3H4, Cell Signaling Tech), anti-Phospho-Stat6 (Polyclonal Rabbit, Cell Signaling Tech), anti-Stat3 (Rabbit 79D7, Cell Signaling Tech), anti-Phospho-Stat3-727 (Rabbit D8C2Z, Cell Signaling Tech), anti-phospho-Stat3-705 (Rabbit D3A7, Cell Signaling Tech). […]

[5] = system: myeloid and lymphoid lymphoma cell lines; experiment: c-Myc acetylation and levels in lymphoma cell lines, Western blot; assay type: cell-based, human
Procedure: as §1

SM1 melanoma tumors = experiment: SM1 melanoma model, in vivo tumor growth; design: species or system C57BL/6 mice
Procedure: In vivo tumor growth: Analysis of tumor growth using the murine SM1 melanoma model were performed in accordance with IACUC guidelines at Georgetown University. Murine melanoma tumors were established by implanting 0.75×10^6 SM1 cells in the right flank area of 6-8 weeks-old female C57BL/6 mice. […] Anti-PD1 or isotype control (BE0146-CUST and BE0089-CUST, Bio X cell) were injected i.p. (15 mg/kg) in 100 ul PBS every other day. Tumor growth was monitored using electronic calipers, the length and width of detected tumors were measured every other day and tumor volumes calculated using the formula ½*length*(width)^2. The body weights of animals were recorded once a week using a portable scale to monitor general health.

CT26 colon cancer tumors = experiment: CT26 colon cancer model, in vivo tumor growth; design: species or system Balb/c mice
Procedure: For the CT26 colon cancer model animal studies were performed by Adgyl Lifesciences. Mice were implanted with 0.5×10^6 CT26 cells in the right flanks of 7-8 week-old female Balb/c mice. […] Tumor volume and body weight were monitored twice weekly. Tumor dissection and single-cell suspension: Tumor single-cell suspensions were obtained by mincing the tumor tissue with scalps in petri dishes with complete media, followed by incubation of the minced tumors in a digestion solution (collagenase I, collagenase IV, hyaluronidase V, and DNase I) at 37° C. with rotation for 30-45 min. The digested solution was passed by a cell strainer to remove undigested material, centrifuged, washed and resuspended in complete media.

[6] = Plasma pharmacokinetics after oral gavage; assay type: in vivo, C57BL/6 mice; conditions: PEG6000 formulation compared to the CMC formulation
Procedure: LS-MS: Plasma samples were obtained using EDTA as anticoagulant and run by Adgyl Life Sciences using a fit for purpose LC-MS/MS method. Briefly, plasma samples were run in a triple Quad 6500+LC-MS/MS System using a 50:50 (ACN:Water v/v) working solution diluent. A mobile Phase A: 2 mM Ammonium formate with 0.1% Formic acid, a mobile Phase B: Acetonitrile with 0.1% formic Acid Isocratic mode; Pump A:B: 50:50. Using a Phenomenex Phenyl-Hexyl column of Sum particle size. […] The calibration curve was generated using area ratio of analyte area: area of internal standard vs concentration and was regressed using linear regression equation and weighting of 1/x2.
The plasma pharmacokinetic parameters of SS-208 were determined from concentration time curves obtained following a single IV and oral route of administration in male C57BL/6 mice. Values are expressed as mean and n=3 mice/time point/group.
However, tumors are not completely eliminated. […] For oral gavage, CMC or PEG6000 formulations were used in fed or starved mice.

[7] = system: murine bone marrow-derived macrophages (BMDM)
Excerpt: as §2

hERG = hERG (Homo sapiens, UniProt Q12809); experiment: hERG test; conditions: up to 30 μM
Chain of hERG (Q12809 whole entry): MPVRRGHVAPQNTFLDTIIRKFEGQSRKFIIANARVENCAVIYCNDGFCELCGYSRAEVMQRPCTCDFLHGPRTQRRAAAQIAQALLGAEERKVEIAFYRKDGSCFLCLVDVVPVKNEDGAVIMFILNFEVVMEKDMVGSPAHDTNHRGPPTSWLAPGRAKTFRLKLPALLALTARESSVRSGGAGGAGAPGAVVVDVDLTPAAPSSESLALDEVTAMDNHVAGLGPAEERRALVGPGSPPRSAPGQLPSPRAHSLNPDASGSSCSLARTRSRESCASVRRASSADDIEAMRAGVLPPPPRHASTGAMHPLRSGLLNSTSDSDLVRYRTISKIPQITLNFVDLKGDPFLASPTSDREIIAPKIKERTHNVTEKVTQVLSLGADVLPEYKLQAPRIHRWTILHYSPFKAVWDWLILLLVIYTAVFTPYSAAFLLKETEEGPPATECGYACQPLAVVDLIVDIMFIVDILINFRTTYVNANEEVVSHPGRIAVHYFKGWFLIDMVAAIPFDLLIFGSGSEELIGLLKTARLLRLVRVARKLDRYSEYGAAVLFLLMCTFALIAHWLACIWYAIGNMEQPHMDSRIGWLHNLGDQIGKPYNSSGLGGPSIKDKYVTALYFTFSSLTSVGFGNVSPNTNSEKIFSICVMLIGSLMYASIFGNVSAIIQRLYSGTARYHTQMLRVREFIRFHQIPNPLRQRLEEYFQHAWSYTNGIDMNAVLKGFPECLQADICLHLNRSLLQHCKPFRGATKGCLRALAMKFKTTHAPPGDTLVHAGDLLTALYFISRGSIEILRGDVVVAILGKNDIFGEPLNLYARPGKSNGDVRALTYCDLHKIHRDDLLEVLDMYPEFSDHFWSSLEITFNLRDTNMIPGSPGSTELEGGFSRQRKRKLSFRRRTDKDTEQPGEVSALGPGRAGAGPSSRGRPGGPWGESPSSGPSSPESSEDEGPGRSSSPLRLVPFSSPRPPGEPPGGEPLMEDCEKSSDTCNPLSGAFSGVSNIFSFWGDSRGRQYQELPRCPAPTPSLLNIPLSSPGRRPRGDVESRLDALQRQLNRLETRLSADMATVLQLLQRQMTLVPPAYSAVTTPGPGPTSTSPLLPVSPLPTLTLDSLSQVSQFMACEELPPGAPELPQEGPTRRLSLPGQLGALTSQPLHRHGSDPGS

[8] = GLP safety and toxicology studies; conditions: rats and dogs
[9] = system: BMA31A7 murine macrophages; experiment: M2 polarization of BMA31A7 macrophages, Western blot
Excerpt: (§3) Two different cell lines were used as they are better models for polarization towards M1 and M2, respectively.

[10] = Safety pharmacology (CNS, pulmonary, cardiovascular); conditions: in vivo
[11] = system: Raw264.7 murine macrophages; experiment: M1 polarization of Raw264.7 macrophages, Western blot
Excerpt: as §3

HDAC6 = biological target: T1, HDAC6 (Homo sapiens, UniProt Q9UBN7); conditions: cited from earlier work
T1 sequence (Q9UBN7 1-1215): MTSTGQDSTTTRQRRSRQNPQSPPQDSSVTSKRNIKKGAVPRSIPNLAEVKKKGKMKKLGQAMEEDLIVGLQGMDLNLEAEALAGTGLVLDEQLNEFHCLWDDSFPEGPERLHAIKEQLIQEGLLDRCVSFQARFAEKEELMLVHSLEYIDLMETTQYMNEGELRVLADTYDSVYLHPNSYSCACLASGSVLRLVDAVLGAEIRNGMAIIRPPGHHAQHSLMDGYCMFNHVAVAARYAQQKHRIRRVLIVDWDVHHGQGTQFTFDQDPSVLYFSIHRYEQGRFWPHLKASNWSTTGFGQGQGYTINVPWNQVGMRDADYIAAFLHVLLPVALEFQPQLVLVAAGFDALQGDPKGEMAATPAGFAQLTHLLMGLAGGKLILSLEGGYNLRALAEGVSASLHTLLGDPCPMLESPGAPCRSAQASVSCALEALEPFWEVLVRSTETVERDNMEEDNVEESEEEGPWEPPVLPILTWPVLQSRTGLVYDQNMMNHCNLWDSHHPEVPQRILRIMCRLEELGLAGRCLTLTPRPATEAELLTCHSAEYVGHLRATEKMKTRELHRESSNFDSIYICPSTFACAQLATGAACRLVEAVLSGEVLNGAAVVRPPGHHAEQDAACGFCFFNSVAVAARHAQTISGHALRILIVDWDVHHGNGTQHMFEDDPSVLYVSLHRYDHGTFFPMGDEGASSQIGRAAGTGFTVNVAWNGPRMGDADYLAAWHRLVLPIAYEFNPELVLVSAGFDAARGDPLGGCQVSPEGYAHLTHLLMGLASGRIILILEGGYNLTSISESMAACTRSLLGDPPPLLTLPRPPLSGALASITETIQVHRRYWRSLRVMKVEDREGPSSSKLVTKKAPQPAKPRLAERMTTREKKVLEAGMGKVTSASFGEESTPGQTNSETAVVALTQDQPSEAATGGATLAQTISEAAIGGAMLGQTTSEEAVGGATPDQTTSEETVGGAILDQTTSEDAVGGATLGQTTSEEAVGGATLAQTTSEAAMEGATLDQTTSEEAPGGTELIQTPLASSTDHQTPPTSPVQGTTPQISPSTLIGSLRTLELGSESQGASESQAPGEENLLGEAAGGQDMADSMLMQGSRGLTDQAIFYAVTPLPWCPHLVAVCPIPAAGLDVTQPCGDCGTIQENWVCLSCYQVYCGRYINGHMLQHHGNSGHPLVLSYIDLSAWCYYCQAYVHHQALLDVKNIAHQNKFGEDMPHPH

melanoma tumor models = conditions: potentiates anti-PD1 therapy; tumors are not completely eliminated; cited from earlier work

SMILES: O=C(NO)c1ccc(CN2CCCc3cc(Cl)ccc32)cc1 [SW100]
- AMES test (in words) [1]: AMES-negative

SMILES: O=C(NCCc1cc(C(=O)NO)no1)c1ccc(Cl)c(Cl)c1 [AVS100, 5-(2-(3,4-dichlorobenzamido)ethyl)-N-hydroxyisoxazole-3-carboxamide]
- AMES test (in words) [2]: AMES-negative
- Ames test (with and without S9) ([2]; TA98, TA1537): negative
- increase in the number of colonies ([2]; tester strain TA98, any dose): < 2 fold
- increase in the number of colonies ([2]; tester strain TA1537, any dose): < 3 fold
- half-life (Hepatocyte stability): 2.25 h
- genes of the RelA/NFKB transcriptional program inhibited in M1 cells ([3]; RNAseq, Trust pathway analysis): 45 genes
- Cox2, Ccl5, and Socs1 induction ([3]; qPCR, M1 (IFN-γ plus LPS)): partially inhibited
- M1 markers Cd64, Tnf and Ido induction ([3]; qPCR, M1 (IFN-γ plus LPS)): did not affect
- induction of the M2 markers Cd209, Cd200r1, Mrc1, Tgm2, and Il10 ([3]; qPCR, M2 (IL-4)): prevented
- STAT6 phosphorylation in response to IL-4 [4]: not inhibited
- c-Myc levels in M0 and M2 polarized macrophages [4]: reduced
- acetyl-c-Myc [5]: increased
- total c-Myc levels [5]: reduced
- tumor growth (SM1 melanoma tumors; 100 mg/kg, daily oral gavage, standalone): significantly reduced
- tumor growth, standalone therapies (SM1 melanoma tumors; AVS100 daily oral gavage, anti-PD1 i.p.): similarly reduced
- intratumoral CD4 T-cells (SM1 melanoma tumors; flow cytometry): reduction
- intratumoral CD8 T-cells (SM1 melanoma tumors; flow cytometry): increase
- Cluster 0, IFN-TAMs (SM1 melanoma tumors; scRNAseq of CD45+ cells): increased
- central memory CD8 T-cells (CD62L+CD44+) (SM1 melanoma tumors; standalone treatment): specific increase
- tumor growth (CT26 colon cancer tumors; AVS100 100 mg/kg daily gavage, anti-PD1 10 mg/kg i.p. every 4 days): significant tumor growth inhibition
- responders with tumor volume lower than 300 mm^3 (CT26 colon cancer tumors; CT26 colon cancer): 20%
- M1-like TAMs (CT26 colon cancer tumors; treatment alone): significant increase
- M2-like TAMs (CT26 colon cancer tumors; treatment alone): significant reduction
- area under the curve (AUC) levels [6]: higher
- bioavailability [6]: higher
- maximum concentrations in blood (Cmax) [6]: higher
- Arg1 levels in M2 polarizing conditions ([7]; Western blot): reduced
- iNOS levels under M1 polarizing conditions ([7]; Western blot): partial reduction
- Il1b levels in M1 cells ([7]; qPCR): increased
- M2 markers Arg1, Fizz1, and Tgfb in M2 cells ([7]; qPCR): inhibition
- Nos2 levels ([7]; qPCR): did not affect
- inhibition in the hERG assay (hERG): no significant inhibition
- mutagenicity or toxicity in GLP studies [8]: no mutagenicity, toxicity, or adverse effects
- acetyl-α-tubulin levels ([9]; BMA31A7, AVS100 10 uM): increased
- Arg1 upregulation under M2 polarizing conditions ([9]; IL-4 plus IL-13, AVS100 10 uM): blocked
- alterations of CNS behavior, pulmonary or cardiovascular function [10]: no alterations
- increase of iNOS levels under M1 polarizing conditions ([11]; LPS plus IFNγ, AVS100 10 uM): did not affect
- acetyl-α-tubulin levels ([11]; Raw264.7, AVS100 10 uM): increased

SMILES: O=C(CCCCCCNC(=O)c1cnc(N(c2ccccc2)c2ccccc2)nc1)NO [ACY-1215]
- specificity over HDAC6 than other HDAC isoforms (HDAC6): ten-fold

SMILES: CCCCN(Cc1ccc(C(=O)NO)cc1)C(=O)Nc1ccccc1 [Nexturastat-A]
- antitumoral effect in melanoma tumor models (melanoma tumor models): antitumoral effect

Reference: patent US20240382463A1, “Composition Comprising HDAC Inhibitor and Immune Checkpoin Inhibitor and Methods For Using the Same” (Avstera Therapeutics Corp., priority 2023, published 2024)
